Experimental data as given in US20120128670A1, “mTOR INHIBITOR AND ANGIOGENESIS INHIBITOR COMBINATION THERAPY” (OSI PHARMACEUTICALS, LLC, priority 2009, published 2012).
Where two headings read alike, the source gives them in different places.

Columns and labels:
[1] = system: DU145 prostate carcinoma xenografts; conditions: for % Reg. / Morbidity (Mortality) / Avg. TGI: DU145 xenografts
Description: (§1) With respect to study Nos. 1 and 2, male athymic nude nu/nu mice (6-8 wks, 25-32 g, Harlan) were allowed to acclimate for a minimum of one week prior to initiation of the study. To evaluate tumor growth inhibition, DU145 tumor fragments were implanted s.c. in the right flank of nude mice. Tumors were established to 200±50 mm^3 in size before randomization into treatment groups of 8 mice each.
(§2) All of the Tumor Growth Inhibition (TGI) studies were performed using 20% Trappsol as the vehicle with once-daily oral administration of OSI-027 for 14 or 28 consecutive days. Body weights were determined twice weekly along with tumor volume (V=[length×(width)]/2) measurements using Vernier calipers. Tumor growth inhibition was determined at different time points by the following formula:
(§3) where Tt=median tumor volume of treated at time t; T0=median tumor volume of treated at time 0; Ct=median tumor volume of control at time t; and C0=median tumor volume of control at time 0. The average TGI over the dosing period was then calculated and reported.
(§4) Tumor regressions were determined and calculated as follows using the formula: % Regression=100(T0−Ti)/T0; where T0 is the mean tumor volume for treated group at the initiation of treatment and Ti is the mean tumor volume for that group at time x.

[2] = system: DU145 prostate carcinoma xenografts; test: Study No. 2: tumor growth inhibition in DU145 prostate carcinoma xenografts, extended dosing for 28 days; type: in vivo
Description: as §1
(§5) Body weights were determined twice weekly along with tumor volume (V=[length×(width)]/2) measurements using Vernier calipers. Tumor growth inhibition was determined at different time points by the following formula:
as §3, §4

[3] = system: H292 lung carcinoma xenografts; test: Study No. 3: tumor growth inhibition in H292 lung carcinoma xenografts; conditions: 21 days, single agent
Excerpt: (§6) Regarding study Nos. 3 and 4, female athymic nude nu/nu CD-1 mice (6-8 wks, 20-29 g, Charles River Laboratories, Wilmington, Mass., USA) were allowed to acclimate for a minimum of one week prior to initiation of the study. To evaluate tumor growth inhibition, cells were harvested from cell culture flasks during exponential cell growth, washed twice with sterile PBS, counted and resuspended in PBS to a suitable concentration before s.c. implantation on the right flank of nu/nu CD-1 mice. Tumors were established to 200±50 mm^3 in size before randomization into treatment groups of 8 mice each.
as §2, §3, §4

[4] = system: OVCAR-5 ovarian carcinoma xenografts; test: Study No. 4: tumor growth inhibition in OVCAR-5 ovarian carcinoma xenografts; conditions: OVCAR-5 xenografts, 14 days, single agent
Excerpt: as §6, §2, §3, §4

[5] = system: SKOV3 ovarian carcinoma xenografts; test: Study No. 5: tumor growth inhibition in SKOV3 ovarian carcinoma xenografts; conditions: single agent
Description: With respect to study No. 5, female athymic nude nu/nu mice (11-12 wks, 20-27 g, Harlan) were allowed to acclimate for a minimum of one week prior to initiation of the study. To evaluate tumor growth inhibition, SKOV3 tumor fragments were implanted s.c. in the right flank of nude mice. Tumors were established to mean tumor volume per treatment group of 84.6 mm^3-85.3 mm^3 of 8 mice each.
as §5, §3, §4

[6] = OSI-027 50 mg/kg qd oral, 14 days, single agent
[7] = OSI-027 50 mg/kg qd oral, 28 days, single agent
[8] = OSI-027 65 mg/kg qd oral, 28 days, single agent
[9] = OSI-027 50 mg/kg qd oral, 50 mg/kg
[10] = OSI-027 50 mg/kg qd oral, 14 days
[11] = OSI-027 50 mg/kg qd oral, 14 days, 50 mg/kg
[12] = Sutent 40 mg/kg qd, listed as Sunitinib
[13] = Avastin 4 mg/kg q4d×4, single agent
[14] = Avastin 4 mg/kg q4d×8, single agent
[15] = Avastin 4 mg/kg q4d (table; text 5 mg/kg q4d×4)
[16] = Avastin 4 mg/kg q4d (table; text 5 mg/kg q4d×4), listed as Bevacizumab

## COc1cccc2cc(-c3nc([C@H]4CC[C@H](C(=O)O)CC4)n4ncnc(N)c34)[nH]c12 [OSI-027, (1R,4R)-4-(4-amino-5-(7-methoxy-1H-indol-2-yl)imidazo[1,5-f][1,2,4]triazin-7-yl)cyclohexanecarboxylic acid]
[1]; [6]
  % Reg.: 0%
  Morbidity (Mortality): 0/8
[1]; OSI-027 50 mg/kg qd oral, 14 days, single agent, 50 mg/kg
  Avg. TGI: 21%
[1]; mouse, in vivo, po, 50 mg/kg
  BWL: 6%
[2]; [7]
  % Reg.: 0%
  BWL: 14%
  Morbidity (Mortality): 0/8
[2]; OSI-027 50 mg/kg qd oral, 28 days, single agent, 50 mg/kg
  Avg. TGI: 40%
[2]; [8]
  % Reg.: 0%
  BWL: 17%
  Morbidity (Mortality): 0/8
[2]; OSI-027 65 mg/kg qd oral, 28 days, single agent, 65 mg/kg
  Avg. TGI: 58%
[3]; OSI-027 50 mg/kg qd oral
  BWL: 0%
  Morbidity (Mortality): 0/8
[3]; [9]
  % Reg.: 8%
  Avg. TGI: 83%
[4]; OSI-027 50 mg/kg qd oral
  BWL: 0%
  Morbidity (Mortality): 0/8
[4]; [9]
  % Reg.: 6%
  Avg. TGI: 78%
[5]; [10]
  BWL: 2%
  Morbidity (Mortality): 0/8
[5]; [11]
  % Reg.: 4%
  Avg. TGI: 86%

## CCN(CC)CCNC(=O)c1c(C)[nH]c(/C=C2\C(=O)Nc3ccc(F)cc32)c1C [Sutent, sunitinib, reference compound]
[3]; Sutent 40 mg/kg qd
  % Reg.: 0%
  Avg. TGI: 55%
  Morbidity (Mortality): 0/8
[3]; [12]
  Avg. TGI: 55%
[4]; Sutent 40 mg/kg qd
  % Reg.: 0%
  Avg. TGI: 71%
  Morbidity (Mortality): 0/8
[4]; [12]
  Avg. TGI: 71%

## bevacizumab [Avastin, reference compound]
[1]; [13]
  % Reg.: 0%
  Avg. TGI: 16%
  Morbidity (Mortality): 0/8
[1]; Avastin 4 mg/kg q4d×4, single agent, listed as Bevacizumab
  Avg. TGI: 16%
[2]; [14]
  % Reg.: 0%
  Avg. TGI: 32%
  Morbidity (Mortality): 0/8
[2]; Avastin 4 mg/kg q4d×8, single agent, listed as Bevacizumab
  Avg. TGI: 32%
[5]; [15]
  % Reg.: 0%
  Avg. TGI: 67%
  Morbidity (Mortality): 0/8
[5]; [16]
  % Reg.: 0%
  Avg. TGI: 67%
